From a melting point compilation (Tetko et al.; mined from patent text by program, amines drawn as free bases though some values may be those of a salt)

Row | SMILES | melting point [°C]
1 | Cc1ccc(-c2nc3ccc(C#N)cn3c2CN(C)C(=O)CC(C)C)cc1 | 151 to 153
2 | COC(=O)[C@H](Cc1ccc(OCCNC(=O)OC(C)(C)C)cc1)NC(=O)OCc1ccccc1 | 89 to 91
3 | O=c1c2ncn(COCCO)c2nc2[nH]c(-c3ccc(Cl)s3)cn12 | 226 to 228
4 | COc1cc2c(cc1O)CCN(Cc1cccc(C#N)c1)C2 | 113 to 155
5 | COc1cc(C#C[Si](C)(C)C)c(OC)cc1C#C[Si](C)(C)C | 164 to 165
6 | COC(=O)c1ccc(CC(=O)Nc2cc(Cl)ccc2N2CCCCC2)cc1 | 156 to 158
7 | CS(=O)c1nn(Cc2cccc(C(F)(F)F)c2)c(N)c1C#N (stereo not given) | 143
8 | C#CCOc1cc(-n2nc(C(C)(C)C)oc2=O)c(F)cc1Cl | 72 to 73
9 | N#CCN1CCC(Nc2nc3ccccc3n2Cc2ccnc3ccccc23)CC1 | 190
10 | CCCc1sc(NC(=O)C2CCCCC2)c(C#N)c1OC | 146 to 147
11 | CCOC(=O)CCC(=O)c1c(COC(C)=O)c(COC(C)=O)cc2cc(OC)c(OC)cc12 | 85 to 87
12 | COc1nc(C)nc(NC(=O)NS(=O)(=O)c2cccs2)n1 | 182 to 184
13 | CC(=O)NCC1CC(c2ccc(N3CCS(=O)CC3)c(F)c2)=NO1 (stereo not given) | 204 to 205
14 | COC(=O)N1CCC(CCC(=O)O)CC1 | 88 to 90
15 | CCCCCC(=O)C=CI | 35 to 37
16 | COc1ccc(N=C(Cl)c2cccc([N+](=O)[O-])c2)cc1 | 108
17 | NC(=O)c1nc(CN2CCOCC2)n(-c2ccc(Cl)cc2C(=O)c2ccccc2Cl)n1 | 165 to 167
18 | CN1C(=O)CCN(c2ccc(C(F)(F)F)cc2)C1=O | 115 to 117
19 | CC(=O)N(C#N)CCCCCCN(C#N)C(C)=O | 59 to 61
20 | Nc1cc(C(=O)O)cc(S(N)(=O)=O)c1Oc1ccccc1 | 252 to 253
21 | O=C1N(Cc2ccc(F)cc2Cl)c2ccccc2C12COc1cc3c(cc12)OCO3 (stereo not given) | 174 to 175
22 | CC(O)CNc1c(Br)cnc2ccccc12 (stereo not given) | 82 to 83
23 | CCC(C)C=C(C(=O)c1ccc(Cl)cc1Cl)n1cncn1 (stereo not given) | 101 to 104
24 | CCOC(CNC1=Nc2sc(CC)cc2C(c2ccccc2Cl)=NC1)OCC | 124 to 127
25 | CCOP(C)(=O)CCNS(=O)(=O)c1ccc(C)cc1 (stereo not given) | 124 to 126

Row | SMILES | melting point [°C]
26 | CCCc1c(OCCCCCc2c(Cl)c(Cl)cc(OC)c2OC)ccc(C(=O)O)c1O | 152 to 154
27 | COc1ccc2c(c1)CCC(=Cc1ccc(OCCCN(C)C)cc1)C2=O | 68 to 71
28 | CC(C)P1(=O)c2ccccc2CN1Cc1ccccc1 (stereo not given) | 145 to 147
29 | CC#CCCn1ncc2c(N)c3c(nc21)CN(CCCC)C3=O | 171 to 172
30 | Cc1noc(-c2cccc(CN3CCN(c4ccc(N)cc4)CC3)c2)n1 | 106 to 108
31 | CC(C)[C@H](NC(=O)N(C)Cc1csc(C2CC2)n1)C(=O)N[C@@H](Cc1ccccc1)C[C@H](O)[C@H](Cc1ccccc1)NC(=O)OCc1cncs1 | 70 to 71
32 | COc1cc2c(cc1OC)CN(CC(=O)Nc1ccc(N)cc1)CC2 | 185
33 | COC(=O)Cn1c(CCc2ccccc2)ccc(NC(=O)OCc2ccccc2)c1=O | 102 to 104
34 | Cc1cccc(C=Cc2ccncc2)n1 | 72 to 73
35 | CC(O)COc1cccc([N+](=O)[O-])c1C#N (stereo not given) | 121 to 124
36 | CC(=O)NC[C@H]1CN(c2ccc(N3CCN(CCN4CCOCC4)CC3)c(F)c2)C(=O)O1 | 150 to 152
37 | CC(C)(C)CC(C)(C)c1ccc(Oc2cc(N)c(O)cc2[N+](=O)[O-])cc1 | 187 to 189
38 | CC(C)(C)OC(=O)c1c(N)sc2c1CCOC2CN1C(=O)c2ccccc2C1=O (stereo not given) | 227 to 230
39 | Cc1cc(O)cc(C)c1Sc1ccccn1 | 190
40 | O=c1c2c(CCc3ccccc3[N+](=O)[O-])n[nH]c2c2cccnc2n1-c1ccccc1 | 333 to 335
41 | O=C(O)Cc1ccc(Cn2cc(C(=O)C(=O)NC3=CC(=O)OC3)c3ccccc32)cc1 | > 270
42 | COC(=O)CC(=O)CS(=O)(=O)C(c1ccc(Cl)cc1)c1ccc(Cl)cc1 | 76 to 78
43 | Oc1ccccc1-c1ccc[nH]1 | 100 to 101
44 | CNC(=O)c1ccccc1Nc1nc(Nc2ccc3c(c2)C(C)(C)CCC(=O)N3)ncc1Cl | 295
45 | CCOCc1nc2c(N)nc3cc(-c4cn[nH]c4)ccc3c2n1CC(C)(C)O | > 250
46 | Cc1c(NC(=O)c2ccc(-c3ccc(F)cc3)nc2)ccc2cc(CN3CCCC3)cnc12 | 207 to 209
47 | COc1ccc(C=C2c3ccccc3C(=O)c3ccccc32)cc1OCC(=O)O | 227 to 230
48 | Cc1oc(-c2ccccc2)nc1COc1ccc(CN(O)C(N)=O)c(Cl)c1 | 145 to 147
49 | COc1ccc(N2CCN(CCCCc3ccc(C4CCC(=O)N4)cc3)CC2)cc1 (stereo not given) | 155 to 156
50 | c1ccc(-c2nnc3c4c(c(OCc5ccccn5)nn23)CCCC4)cc1 | 194

Row | SMILES | melting point [°C]
51 | CC(C)(C)OC(=O)N1CCCC(c2ncc(-c3cnc(-c4ccccc4)nc3)[nH]2)C1 (stereo not given) | 130
52 | COC(=O)C(=O)c1ccc(OCCOc2ccc(OC)c(OC)c2)cc1 | 93 to 94
53 | CCCN(C(=O)COc1c(Cl)cccc1Cl)C1CCc2c(ccc(O)c2O)C1 (stereo not given) | 157 to 159
54 | Oc1cc(Br)c2oc(-c3cc(F)c(O)c(F)c3)nc2c1 | 270 to 272
55 | Cc1ccc(-c2ccc3c(c2)C=C(CN2CCC(NC(=O)C(F)(F)F)CC2)CCO3)cc1 | 94 to 96
56 | Cc1cc(C(=O)NC2CC2)ccc1N1CCN(Cc2cnc3c(c2)NC(=O)[C@@H]2CCCN32)CC1 | 227 to 234
57 | COC(=O)C1=CC(=O)CCC1c1ccccc1 (racemic) | 66
58 | CC1COc2c(ccc(F)c2F)N1C(=O)C=NO (stereo not given) | 188 to 190
59 | CC(F)(F)c1cccc(Oc2ccc(C3CCCN4CCS(=O)(=O)N=C34)cc2)c1 (stereo not given) | 117 to 118
60 | O=C1c2cc([N+](=O)[O-])ccc2OC12CC2 | 107 to 110
61 | COc1ccc2c(c1C=O)OCO2 | 124
62 | FC(F)(F)c1[nH]c(-c2ccc(Cl)cc2)cc1-c1csc(Br)c1 | 112 to 115
63 | CC(c1cc(F)cc(Br)c1O)c1cc(Cl)cc(C(C)c2cc(F)cc(Br)c2O)c1O (stereo not given) | 136
64 | CNC(=O)c1ccc(Nc2nc(Nc3cc4c(cc3OC)CCN(C(COC)COC)CC4)ncc2Cl)c(OC)c1 | 85 to 97
65 | CCOC(=O)C1=C(C)N=C(SCc2ccc(OC)cc2)N(C(=O)OCC)C1c1ccccc1OC (stereo not given) | 116 to 118
66 | C[C@@H](Cn1ncc2ccc3c(c21)C[C@@H](OCC(=O)OC(C)(C)C)CO3)N=[N+]=[N-] | 77 to 78
67 | CCOC(=O)CNC(=O)CC(O)CCl (stereo not given) | 53 to 54
68 | CCC1(C)Cc2cc(O)c(Cl)c(Cl)c2C1=O (stereo not given) | 215 to 217
69 | COc1cc2c(c3c1OC(C)(C)C3)C(c1cccc(Nc3cccnc3)c1)=NC(C)(C)C2 | 204 to 205
70 | CCOC(=O)C1=C(C(=O)OCC)C(c2cccc3ccccc23)C(C(=O)OCC)=C(C)N1 (stereo not given) | 112
71 | COC(=O)c1ccc(Cn2nc(C(C)(C)C)cc2C(C)(C)C)cc1 | 135 to 136
72 | COCCOC(=O)C1=NNC(C)=C(C(=O)OC(C)C)C1c1cccc([N+](=O)[O-])c1 (stereo not given) | 165
73 | OCC(CO)(Cc1ccccc1)Cc1ccccc1 | 105
74 | COc1cc(C(=O)N(C(C)C)C(C)C)ccc1OCCCCOc1ccc(C(N)=NO)cc1 | 63 to 65
75 | CC(C)(C)c1ccn(-c2ccc(C(=O)c3cccc4c3Nc3ncccc3CN4)c(C(F)(F)F)c2)n1 | 136 to 140

Row | SMILES | melting point [°C]
76 | Cc1cc(-n2ccnc2)c2cccc(OCc3c(Cl)ccc(S(=O)(=O)N4CCC[C@H]4C(=O)N4CCN(c5ccncc5)CC4)c3Cl)c2n1 | 136
77 | CC(=O)NNCC1CC2c3cccc4[nH]cc(c34)CC2N(C)C1 (stereo not given) | 213 to 215
78 | COc1ccc(CC(=O)NCCc2ccccc2)cc1OC | 123 to 124
79 | O=C(O)CCCCCCc1cccc(-c2nc(=O)c3ccccc3s2)n1 | 149 to 151
80 | CCNC(=O)c1ccc(N2CCN(Cc3cnc4c(c3)NC(=O)[C@@H]3CSCCN43)CC2)cc1 | 289
81 | COc1ccc([C@@H]2SC(c3ccccc3)=C(C)N(CCN(C)C)C(=O)[C@H]2O)cc1 (relative stereo) | 132 to 133
82 | C#CCn1c(-c2cccc(C=O)c2)nc(CC)c(CC)c1=O | 82 to 86
83 | CS(=O)(=O)c1ccc(-c2[nH]c(S)nc2-c2ccc(F)cc2)cc1 | 158 to 161
84 | CC(=O)N=NCc1ccc(OCCCCCOc2ccc(C(=O)N(c3ccccc3)C(C)C)c(Cl)c2)cc1 | 58 to 60
85 | COCC(=O)NCC(=O)N1CC1C#N (stereo not given) | 70 to 72
86 | NC(=O)NN=Cc1ccc(Oc2ccc([N+](=O)[O-])cc2)cc1 | 221 to 222
87 | Cc1cccc(N=C(N)N(C)C)c1N1CCOCC1 | 100
88 | O=C(NC(O)C(=O)O)OCc1ccccc1 (stereo not given) | 194 to 198
89 | CCOC(=O)C1=Cc2cccc(SC)c2OCC1 | 54 to 55
90 | COc1ccnc(C(=O)N[C@H]2COC(=O)[C@H](CCOC(=O)c3ccccc3)[C@@H](OC(=O)C(C)C)[C@H](C)OC2=O)c1OCOC(=O)C(C)C | 48 to 50
91 | CNC(=O)Oc1ccc(CN2CCN(c3ccc(C(C)=O)cc3)CC2)cc1OC | 120 to 123
92 | Fc1ccc2sccc2c1 | 21 to 22
93 | Fc1ccc2nc(CBr)ccc2c1 | 90 to 92
94 | CN1C(=O)O[C@@H](c2ccc(F)cc2)[C@H]1Cc1ccc(C(F)(F)F)cc1 (racemic) | 77 to 78
95 | CCN(CC)CCNc1nc2cccnc2n(-c2ccc(C)cc2)c1=O | 131 to 132
96 | COc1ccc(CC(=O)N2C=CC(C)(C)C=C2)cc1OC | 86 to 89.5
97 | Nc1c(C2=CCCCC2)c(-c2ccccc2)nn1-c1ccccc1 | 115 to 117
98 | Cc1ncccc1[N+](=O)[O-] | 29 to 31
99 | CC(=O)N1CCc2cc(C(O)CN(Cc3ccccc3)Cc3ccccc3)ccc21 (stereo not given) | 116
100 | CCCc1nc(C(C)(C)O)c(C(=O)OCOC(=O)OC(C)C)[nH]1 | 144 to 146
